Reference: PMC3161154 (Journal of the American Chemical Society, 2011)

What was measured:
LNCap = assay: cytotoxicity, LNCap; type: cell-based; details: read-out: LNCap (nM), cytotoxicity
MDA-468 = assay: cytotoxicity, MDA-468; type: cell-based; details: read-out: MDA-468 (nM), cytotoxicity
mTOR = mTOR (Homo sapiens, UniProt P42345); assay: mTor kinase inhibition; type: biochemical; details: read-out: mTOR (nM), mTor kinase inhibition
lymphocyte kinase = details: read-out: IC50 lymphocyte kinase; cited from earlier work
[1] = target: phosphatidylinositol 3-kinase; details: read-out: IC50 phosphatidylinositol 3-kinase; cited from earlier work

| Compound | IC50 (mTOR) | IC50 (LNCap) | IC50 (MDA-468) | IC50 (lymphocyte kinase) | IC50 [1] |
| --- | --- | --- | --- | --- | --- |
| neolymphostin A [Compound 3] | 0.8 nM | 22 nM | 58 nM | – | – |
| CO/C=C/C(=O)c1cc2cnc3c(=N)cc(NC(C)=O)c([nH]1)c23 [Compound 1, lymphostin] | 1.7 nM | 38 nM | 14 nM | 50 nM | 1 nM |
| CCC(=O)Nc1cc(=N)c2ncc3cc(C(=O)C=COC)[nH]c1c32 [Compound 4, neolymphostin B] | 1.5 nM | 48 nM | 85 nM | – | – |

Second part, led by results:

| IC50 (mTOR) | Compound | IC50 (LNCap) | IC50 (MDA-468) | IC50 (lymphocyte kinase) | IC50 [1] |
| --- | --- | --- | --- | --- | --- |
| 1.8 nM | COC=CC(=O)c1cc2cnc3c(=N)cc(NC(=O)CC(C)C)c([nH]1)c23 [Compound 6, neolymphostin D] | 230 nM | 700 nM | – | – |
| 1.8 nM | CC[C@H](C)C(=O)Nc1cc(=N)c2ncc3cc(C(=O)C=COC)[nH]c1c32 [Compound 5, neolymphostin C] | 230 nM | 700 nM | – | – |
